How the values were obtained:
DU145 cells = assay: Antiproliferative assay in DU145 cells, WST-1 cell proliferation assay, 96 hours (GI50); format: cell-based; conditions: Homo sapiens, DU-145, 96 hours post-treatment
Protocol: Antiproliferative assays. DU145 cells were seeded into 96 well microtiter plates (5000 cells/well) and treated with […] of compounds or with vehicle control. At 96 hours post-treatment, live cell counts were determined by WST-1 cell proliferation assay (Roche, Penzberg, Germany), as per manufacturer's instructions. Viability results were expressed as a percentage of mean control values resulting in the calculation of the 50% growth inhibition (GI50). All experiments were performed in triplicate.

| GI50 (DU145 cells; triplicate) [µM] | melting point [°C] | GI50 (DU145 cells; 50% growth inhibition) [µM] | Structure (SMILES) |
| --- | --- | --- | --- |
| 50 to 100 | 97 to 98 |  | COc1cc2c(cc1OCc1ccccc1)CCN(Cc1ccccc1)C2 [compound 2, 2-Benzyl-6-benzyloxy-7-methoxy-1,2,3,4-tetrahydroisoquinoline] |
| 50 to 100 | 96 to 97 |  | COc1ccc(CN2CCc3cc(OCc4ccccc4)c(OC)cc3C2)cc1 [compound 3, 6-Benzyloxy-7-methoxy-2-(4-methoxybenzyl)-1,2,3,4-tetrahydroisoquinoline] |
| 50 to 100 | 71 to 72 |  | COc1cccc(CN2CCc3cc(OCc4ccccc4)c(OC)cc3C2)c1 [compound 4, 6-Benzyloxy-7-methoxy-2-(3-methoxybenzyl)-1,2,3,4-tetrahydroisoquinoline] |
| 10 to 50 | 85 to 86 |  | COc1ccccc1CN1CCc2cc(OCc3ccccc3)c(OC)cc2C1 [compound 5, 6-Benzyloxy-7-methoxy-2-(2-methoxybenzyl)-1,2,3,4-tetrahydroisoquinoline] |
| > 100 | 95 to 96 |  | COc1cc(CN2CCc3cc(OCc4ccccc4)c(OC)cc3C2)cc(OC)c1 [compound 6, 6-Benzyloxy-2-(3,5-dimethoxybenzyl)-7-methoxy-1,2,3,4-tetrahydroisoquinoline] |
| > 100 | 81 to 82 |  | COc1cc2c(cc1OCc1ccccc1)CCN(Cc1cccc(C)c1)C2 [compound 7, 6-Benzyloxy-7-methoxy-2-(3-methylbenzyl)-1,2,3,4-tetrahydroisoquinoline] |
| > 100 | 111 to 112 |  | COc1cc2c(cc1OCc1ccccc1)CCN(Cc1cccc(Oc3ccccc3)c1)C2 [compound 8, 6-Benzyloxy-7-methoxy-2-(3-phenoxybenzyl)-1,2,3,4-tetrahydroisoquinoline] |
| 10 to 50 | 110 to 111 |  | COc1cc(OC)c(OC)cc1CN1CCc2cc(OCc3ccccc3)c(OC)cc2C1 [compound 17, 6-Benzyloxy-7-methoxy-2-(2,4,5-trimethoxybenzyl)-1,2,3,4-tetrahydroisoquinoline] |
| 10 to 50 | 144 to 145 |  | COc1cc2c(cc1OCc1ccccc1)CCN(Cc1cc(OC)c(OC)c(OC)c1)C2 [compound 19, 6-Benzyloxy-7-methoxy-2-(3,4,5-trimethoxybenzyl)-1,2,3,4-tetrahydroisoquinoline] |
| 10 to 50 | 106 to 107 |  | COc1cc2c(cc1OCc1ccccc1)CCN(Cc1cccc(OC)c1OC)C2 [compound 20, 6-Benzyloxy-7-methoxy-2-(2,3-dimethoxybenzyl)-1,2,3,4-tetrahydroisoquinoline] |
| > 100 | 77 to 79.5 |  | COc1cc2c(cc1OCc1ccccc1)CCN(Cc1cccc(F)c1)C2 [compound 22, 6-Benzyloxy-2-(3-fluorobenzyl)-7-methoxy-1,2,3,4-tetrahydroisoquinoline] |
| > 100 | 114 to 115 |  | COc1cc2c(cc1OCc1ccccc1)CCN(Cc1cccc(N)c1)C2 [compound 34, 2-(3-Aminobenzyl)-6-(benzyloxy)-7-methoxy-1,2,3,4-tetrahydroisoquinoline] |
| > 100 | 134 to 135 |  | COc1cc2c(cc1O)CCN(Cc1ccccc1)C2 [compound 38, 2-Benzyl-6-hydroxy-7-methoxy-1,2,3,4-tetrahydroisoquinoline] |
| > 100 | 162 to 163 |  | COc1ccc(CN2CCc3cc(O)c(OC)cc3C2)cc1 [compound 39, 6-Hydroxy-7-methoxy-2-(4-methoxybenzyl)-1,2,3,4-tetrahydroisoquinoline] |
| > 100 | 161 to 162 |  | COc1cccc(CN2CCc3cc(O)c(OC)cc3C2)c1 [compound 40, 6-Hydroxy-7-methoxy-2-(3-methoxybenzyl)-1,2,3,4-tetrahydroisoquinoline] |
| > 100 | 128 to 129 |  | COc1cc2c(cc1O)CCN(Cc1ccccc1OC)C2 [compound 41, 6-Hydroxy-7-methoxy-2-(2-methoxybenzyl)-1,2,3,4-tetrahydroisoquinoline] |
| 50 to 100 | 127 to 128 |  | COc1cc(CN2CCc3cc(O)c(OC)cc3C2)cc(OC)c1 [compound 42, 6-Hydroxy-2-(3,5-dimethoxybenzyl)-7-methoxy-1,2,3,4-tetrahydroisoquinoline] |
| 10 to 50 | 139 to 140 |  | COc1cc2c(cc1O)CCN(Cc1cccc(Oc3ccccc3)c1)C2 [compound 43, 6-Hydroxy-7-methoxy-2-(3-phenoxybenzyl)-1,2,3,4-tetrahydroisoquinoline] |
| < 10 | 170 to 171 |  | COc1cc2c(cc1O)CCN(Cc1cc(OC)c(OC)c(OC)c1)C2 [compound 54, 6-Hydroxy-7-methoxy-2-(3,4,5-trimethoxybenzyl)-1,2,3,4-tetrahydroisoquinoline] |

| GI50 (DU145 cells; triplicate) [µM] | melting point [°C] | GI50 (DU145 cells; 50% growth inhibition) [µM] | Structure (SMILES) |
| --- | --- | --- | --- |
| 50 to 100 | 104 to 105 |  | COc1ccc(OC)c(CN2CCc3cc(O)c(OC)cc3C2)c1 [compound 55, 6-Hydroxy-7-methoxy-2-(2,5-dimethoxybenzyl)-1,2,3,4-tetrahydroisoquinoline] |
| > 100 | 101 to 102 |  | COc1cc2c(cc1O)CCN(Cc1cccc(OC)c1OC)C2 [compound 56, 6-Hydroxy-7-methoxy-2-(2,3-dimethoxybenzyl)-1,2,3,4-tetrahydroisoquinoline] |
| > 100 | 146 to 147 |  | COc1cc2c(cc1O)CCN(Cc1ccc(OC)c(OC)c1)C2 [compound 57, 6-Hydroxy-7-methoxy-2-(3,4-dimethoxybenzyl)-1,2,3,4-tetrahydroisoquinoline] |
| > 100 | 65 to 66 |  | COc1cc2c(cc1O)CCN(Cc1ccc(OC)c(OC)c1OC)C2 [compound 58, 6-Hydroxy-7-methoxy-2-(2,3,4-trimethoxybenzyl)-1,2,3,4-tetrahydroisoquinoline] |
| < 10 | 152 to 153 |  | COc1cc2c(cc1O)CCN(Cc1cc(OC)c(OC)cc1OC)C2 [compound 59, 6-Hydroxy-7-methoxy-2-(2,4,5-trimethoxybenzyl)-1,2,3,4-tetrahydroisoquinoline] |
| > 100 | 125 to 127 |  | COc1cc2c(cc1O)CCN(Cc1cccc(F)c1)C2 [compound 60, 2-(3-Fluorobenzyl)-6-hydroxy-7-methoxy-1,2,3,4-tetrahydroisoquinoline] |
| > 100 | 143 to 146 |  | COc1cc2c(cc1O)CCN(Cc1cccc(OC(C)C)c1)C2 [compound 61, 2-(3-Isopropoxybenzyl)-6-hydroxy-7-methoxy-1,2,3,4-tetrahydroisoquinoline] |
| > 100 | 105 to 106 |  | CCOc1cccc(CN2CCc3cc(O)c(OC)cc3C2)c1 [compound 63, 2-(3-Ethoxybenzyl)-6-hydroxy-7-methoxy-1,2,3,4-tetrahydroisoquinoline] |
| > 100 | 113 to 155 |  | COc1cc2c(cc1O)CCN(Cc1cccc(C#N)c1)C2 [compound 64, 2-(3-Cyanobenzyl)-6-hydroxy-7-methoxy-1,2,3,4-tetrahydroisoquinoline] |
| > 100 | 165 to 166.5 |  | COc1cc2c(cc1O)CCN(Cc1ccc(C#N)cc1)C2 [compound 65, 2-(4-Cyanobenzyl)-6-hydroxy-7-methoxy-1,2,3,4-tetrahydroisoquinoline] |
| > 100 | 127 to 128 |  | COc1cc2c(cc1O)CCN(Cc1cccc([N+](=O)[O-])c1)C2 [compound 66, 6-Hydroxy-7-methoxy-2-(3-nitrobenzyl)-1,2,3,4-tetrahydroisoquinoline] |
| 50 to 100 | 118 to 119.5 |  | COc1cc2c(cc1O)CCN(Cc1cccc(Cl)c1)C2 [compound 67, 2-(3-Chlorobenzyl)-6-hydroxy-7-methoxy-1,2,3,4-tetrahydroisoquinoline] |
| 50 to 100 | 122 to 124 |  | COc1cc2c(cc1O)CCN(Cc1cccc(OC(F)(F)F)c1)C2 [compound 68, 6-Hydroxy-7-methoxy-2-(3-trifluoromethoxybenzyl)-1,2,3,4-tetrahydroisoquinoline] |
| > 100 | 151.9 to 152.6 |  | COc1cc2c(cc1O)CCN(Cc1ccccc1O)C2 [compound 69, 2-(2-Hydroxybenzyl)-6-hydroxy-7-methoxy-1,2,3,4-tetrahydroisoquinoline] |
| > 100 | 177 to 178 |  | COc1cc2c(cc1O)CCN(Cc1cccc(O)c1)C2 [compound 70, 2-(3-Hydroxybenzyl)-7-methoxy-1,2,3,4-tetrahydroisoquinolin-6-ol] |
| 10 to 50 | 126 to 127 |  | COc1ccc(C(=O)N2CCc3cc(OCc4ccccc4)c(OC)cc3C2)cc1 [compound 108, 7-Methoxy-2-(4-methoxybenzoyl)-6-benzyloxy-1,2,3,4-tetrahydroisoquinoline] |
| 10 to 50 | 130 to 131 |  | COc1cc(OC)cc(C(=O)N2CCc3cc(OCc4ccccc4)c(OC)cc3C2)c1 [compound 110, 6-Benzyloxy-2-(3,5-dimethoxybenzoyl)-7-methoxy-1,2,3,4-tetrahydroisoquinoline] |
|  |  | > 100 | COc1cccc(CN2Cc3cc(OC)c(OS(N)(=O)=O)cc3CC2(C)C)c1 [compound 230, 2-(3-Methoxybenzyl)-1,2,3,4-tetrahydro-7-methoxy-3,3-dimethylisoquinolin-6-yl sulfamate] |
|  |  | > 100 | COc1cc2c(cc1OS(N)(=O)=O)CC(C)(C)N(Cc1cc(OC)c(OC)c(OC)c1)C2 [compound 231, 2-(3,4,5-Trimethoxybenzyl)-1,2,3,4-tetrahydro-7-methoxy-3,3-dimethylisoquinolin-6-yl sulfamate] |
